≈ marks a conversion by molar mass, not a printed value. Where “and” joins values, the source holds several entries; their conditions need not be identical. Identical values can stand only once. Like-named read-outs stand apart in the source and are kept apart here.
Assays:
E. coli DNA gyrase = E. coli DNA gyrase (Escherichia coli, UniProt P0AES6); experiment: E. coli DNA gyrase supercoiling inhibitory assay; type: biochemical
Method: The fluorescence was measured with a microplate reader (BioTek Synergy H4,
NaCl and 50 mM MgCl2) was added to terminate the enzymatic reaction. After
Initial screening was done at 100 or 10 μM concentration

S. aureus = experiment: MIC/MBC assay, twofold serial dilution; type: cell-based, Staphylococcus aureus
Method: (§1) The results of this in vitro assay test are consistent with the findings of the antimicrobial sensitivity test. […] It has lower antimicrobial activity than ciprofloxacin against all pathogens tested.
(§2) The MBC differs from the MIC. […]
(§3) 4.2.2. Minimum inhibitory concentration assay
(§4) In 96-well microtiter plates and […] of fresh bacterial culture of a single McFarland unit overnight, a double serial dilution of each compound […] in sterile standard saline were prepared to every single source well. Ciprofloxacin antibiotic (5 mg / mL - 1) and normal saline were included as standard reference in each assay. The plates were incubated at 37 0C overnight. As an indicator of bacterial growth, […] of p-iodonitrotetrazolium violet (INT) was added to each well and incubated at 37 0C for 30 […]
(§5) min. MIC values are recorded as the lowest concentration of the extract that completely inhibited bacterial growth that is clear well. The colorless tetrazolidium salt acts as an electron accepter and is reduced to a red colored formazan product by biological activity organisms. Where bacterial growth was inhibited, the solution in the well remained clear after incubation with INT. […]

E. coli = experiment: MIC/MBC assay, twofold serial dilution; type: cell-based, Escherichia coli; conditions: Escherichia coli; for MBC: read-out: MBC; for MIC: read-out: MIC
Method: as §1, §2, §3, §4, §5

[1] = tested on: P. aeruginosa (ATCC BAA-2111); experiment: Antibacterial assay against multi-drug resistant strains (MIC/MBC); type: cell-based, Pseudomonas aeruginosa; conditions: Pseudomonas aeruginosa; for MBC: ATCCBAA2111; for MIC: ATCCBAA2111, read-out: MIC
DHFR E. Coli = DHFR E. Coli (Escherichia coli, UniProt P0ABQ4); experiment: DHFR inhibitory assay; type: biochemical
B. subtilis = experiment: MIC/MBC assay, twofold serial dilution; type: cell-based, Bacillus subtilis; conditions: for MIC: read-out: MIC
Method: as §1, §2, §3, §4, §5

Gram-positive bacteria = experiment: MBC assay, Gram-positive bacteria together; type: cell-based; conditions: Gram-positive bacteria (B. subtilis, S. aureus)
From the text: The MBC differs from the MIC.

[2] = Cell viability assay (MTT); type: cell-based; conditions: human, 4-day incubation
Method: The vitality of the investigated compounds was assessed using the MCF-10A cell line, which is a normal human mammary gland epithelial cell line. Following a 4-day incubation period on MCF-10A cells with a concentration of 50 µM for each compound being studied, the viability of the cells was assessed using the MTT test ([Hisham et al., 2022]; [Mahmoud et al., 2022]).
4.2.3. Cell Viability assay
MTT assay was carried out to study the effect of compounds on mammary epithelial cells (MCF-10A). The medium in which cells were propagated contained Dulbecco's modified Eagle's medium (DMEM)/ Ham's F-12 medium (1:1) supplemented with epidermal growth factor (20 ng/mL), hydrocortisone (500 ng/mL), insulin (10 μg/mL), 2 mM glutamine and 10% fetal calf serum. After every 2-3 days, the cells were passaged using trypsin ethylenediamine tetra acetic acid (EDTA). The cells were seeded at a density of 10^4 cells mL-1 in flat-bottomed culture plates containing 96 wells each. After 24 h, medium was removed from the plates and the compounds in (in 0.1% DMSO) were added (in 200 μL medium to yield a final concentration of 0.1% v/v) to the wells of plates. A single compound was designated with four wells followed by incubation of plates for 96h at 37°C. After incubation, medium was removed completely from the plates followed by addition of MTT (0.4 mg/mL in medium) to each well and subsequent incubation of plates for 3h. MTT (along with the medium) was removed and DMSO (150μL) was added to each well of the culture plates, followed by vortexing and subsequent measurement of absorbance (at 540 nm) using microplate reader. The data are shown as percentage inhibition of proliferation in comparison with controls

C. albicans = experiment: Antifungal assay (MIC/MFC), twofold serial dilution
P. aeruginosa = experiment: MIC/MBC assay, twofold serial dilution; type: cell-based, Pseudomonas aeruginosa; conditions: for MIC: read-out: MIC
Method: as §1, §2, §3, §4, §5

[3] = tested on: S. aureus (ATCC 43300) (MRSA); experiment: Antibacterial assay against multi-drug resistant strains (MIC/MBC); type: cell-based, Staphylococcus aureus; conditions: Staphylococcus aureus, S. aureus ATCC 43300 (MRSA); for MBC: read-out: MBC; for MIC: read-out: MIC
A. flavus = experiment: Antifungal assay (MIC/MFC), twofold serial dilution; conditions: for MIC: A. flavus
E. coli (ATCC BAA-196) = experiment: Antibacterial assay against multi-drug resistant strains (MIC/MBC); type: cell-based, Escherichia coli; conditions: Escherichia coli; for MBC: ATCCBAA196; for MIC: ATCCBAA196, read-out: MIC
[4] = tested on: MDRB (multi-drug resistant bacteria); experiment: MIC/MBC against the MDRB panel as a whole
From the text: Norfloxacin, a broad-spectrum antibiotic, worked as positive control.

[5] = Staphylococcus aureus, read-out: MBC
[6] = Staphylococcus aureus, read-out: MIC
[7] = Bacillus subtilis, read-out: MBC
[8] = Pseudomonas aeruginosa, read-out: MBC

Sequence of DHFR E. Coli (P0ABQ4 whole entry): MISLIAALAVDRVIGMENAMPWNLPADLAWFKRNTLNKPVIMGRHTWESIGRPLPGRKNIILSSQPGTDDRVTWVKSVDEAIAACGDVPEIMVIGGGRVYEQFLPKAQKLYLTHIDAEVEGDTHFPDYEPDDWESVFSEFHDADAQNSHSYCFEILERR

Structure (SMILES)	IC50 (E. coli DNA gyrase) [µM]	MBC (S. aureus) [µM]	MIC (S. aureus) [µM]	MBC (S. aureus; [5]) [µM]	MIC (S. aureus; [6]) [µM]	MBC (E. coli) [µM]	MIC (E. coli) [µM]	MBC [1] [µM]	MIC [1] [µM]	MBC (B. subtilis) [µM]	MBC (B. subtilis; [7]) [µM]	MIC (B. subtilis; Bacillus subtilis) [µM]	MBC (Gram-positive bacteria) [µM]	MFC (C. albicans; Candida albicans) [µM]	MIC (C. albicans; Candida albicans) [µM]	MBC (P. aeruginosa) [µM]	MBC (P. aeruginosa; [8]) [µM]	MIC (P. aeruginosa; Pseudomonas aeruginosa) [µM]	MBC [3] [µM]	MIC [3] [µM]	further results
Cc1ccc2c(c1)/C(=N/NC(=O)c1cc(Cc3ccc(O)c(C(=O)N/N=C4\C(=O)Nc5ccc(C)cc54)c3)ccc1O)C(=O)N2 [Compound 6j]	0.117 ± 0.008	0.04 ± 0.002 (≈ 0.0241 µg/mL)	0.025 ± 0.002 (≈ 0.0151 µg/mL)	0.04 (≈ 0.0241 µg/mL)	0.025 (≈ 0.0151 µg/mL)	0.081 ± 0.006 (≈ 0.0488 µg/mL)	0.062 ± 0.004 (≈ 0.0374 µg/mL)	7.8 ± 0.3 (≈ 4.7 µg/mL)	5.6 ± 0.25 (≈ 3.37 µg/mL)	0.047 ± 0.002 (≈ 0.0283 µg/mL)	0.047 (≈ 0.0283 µg/mL)	0.031 ± 0.002 (≈ 0.0187 µg/mL)	0.028 to 0.058 (≈ 0.0169 to 0.035 µg/mL)	41.5 ± 3 (≈ 25 µg/mL)	20.7 ± 1 (≈ 12.5 µg/mL)	0.08 ± 0.006 (≈ 0.0482 µg/mL)	0.08 (≈ 0.0482 µg/mL)	0.061 ± 0.005 (≈ 0.0368 µg/mL)	5.9 ± 0.25 (≈ 3.56 µg/mL)	3.2 ± 0.15 (≈ 1.93 µg/mL)	IC50 (DHFR E. Coli; read-out: IC50 DHFR E. Coli): 5.1 ± 0.2 µM; viability at 96 h, 50 µM ([2]; MCF-10A cells (normal mammary gland epithelial cell line)): 92%; MIC (A. flavus): 16.90 ± 1 µM (≈ 10.2 µg/mL); MFC (A. flavus; Aspergillus flavus): 33.9 ± 2 µM (≈ 20.4 µg/mL); MIC (A. flavus; Aspergillus flavus): 14.5 to 19.5 µM (≈ 8.74 to 11.8 µg/mL); MBC (E. coli (ATCC BAA-196)): 6.1 ± 0.25 µM (≈ 3.68 µg/mL); MIC (E. coli (ATCC BAA-196)): 3.9 ± 0.15 µM (≈ 2.35 µg/mL)
O=C1Nc2ccc([N+](=O)[O-])cc2/C1=N/NC(=O)c1cc(Cc2ccc(O)c(C(=O)N/N=C3\C(=O)Nc4ccc([N+](=O)[O-])cc43)c2)ccc1O [Compound 6l]	0.087 ± 0.006	0.033 ± 0.002 (≈ 0.0219 µg/mL)	0.021 ± 0.002 (≈ 0.014 µg/mL)	0.033 (≈ 0.0219 µg/mL)	0.021 (≈ 0.014 µg/mL)	0.077 ± 0.006 (≈ 0.0512 µg/mL)	0.057 ± 0.004 (≈ 0.0379 µg/mL)	6.5 ± 0.25 (≈ 4.32 µg/mL)	4.5 ± 0.2 (≈ 2.99 µg/mL)	0.043 ± 0.003 (≈ 0.0286 µg/mL)	0.043 (≈ 0.0286 µg/mL)	0.026 ± 0.002 (≈ 0.0173 µg/mL)	0.028 to 0.058 (≈ 0.0186 to 0.0385 µg/mL)	39.2 ± 3 (≈ 26.1 µg/mL)	19.5 (≈ 13 µg/mL)	0.078 ± 0.006 (≈ 0.0518 µg/mL)	0.078 (≈ 0.0518 µg/mL)	0.057 ± 0.004 (≈ 0.0379 µg/mL)	4.5 ± 0.2 (≈ 2.99 µg/mL)	2.2 ± 0.1 (≈ 1.46 µg/mL)	Potency relative to novobiocin against DNA gyrase (E. coli DNA gyrase): twice as potent as novobiocin; MBC ([4]; read-out: MBC values): 4.5 to 6.5 µM (≈ 2.99 to 4.32 µg/mL); MIC ([4]; read-out: MIC values): 2.2 to 4.5 µM (≈ 1.46 to 2.99 µg/mL); Times more effective than ciprofloxacin (MIC) (S. aureus): 1.5 times; IC50 (DHFR E. Coli): 4.25 ± 0.1 µM; Times less effective than ciprofloxacin (MIC) (B. subtilis): 2.5 times; viability at 96 h, 50 µM ([2]; MCF-10A): 89%; MIC (C. albicans; C. albicans): 19.50 ± 1 µM (≈ 13 µg/mL); MIC (A. flavus): 15.60 µM and 15.60 ± 1 µM; MFC (A. flavus; Aspergillus flavus): 31.1 ± 2 µM (≈ 20.7 µg/mL); MIC (A. flavus; Aspergillus flavus): 14.5 to 19.5 µM (≈ 9.64 to 13 µg/mL); MBC (E. coli (ATCC BAA-196)): 4.8 ± 0.2 µM (≈ 3.19 µg/mL); MIC (E. coli (ATCC BAA-196)): 2.7 ± 0.1 µM (≈ 1.79 µg/mL)
